PMC11830721 (Frontiers in Pharmacology, 2025)

Assays:
Assay type in all cases: biochemical
60 non-target kinases = experiment: SelectScreen kinase selectivity profiling, whole panel; settings: all 60 kinases
Source text: Moreover, we extended the kinase selectivity profiling of FLIN-4 to evaluate its inhibitory activity against 60 non-target kinases.

ABL2 = ABL2 (Homo sapiens, UniProt P42684); experiment: SelectScreen kinase selectivity assay; settings: ten-dose 0.25–128 μM
Procedure: (§1) Following the standardized kinase activity assay protocol as previously reported, we utilized the SelectScreen Kinase Profiling Service (Thermo Fisher Scientific) to determine the kinase selectivity profile of FLIN-4 ([van der Wel et al., 2020]). Through a ten-dose dilution series ranging from 0.25 μM to 128 μM in dose-response experiments, we precisely measured the inhibitory effect of FLIN-4 on the substrate phosphorylation reactions catalyzed by a panel of kinases, and thus ascertained the half-maximal inhibitory concentrations (IC50) for each kinase.

ALK = ALK (Homo sapiens, UniProt Q9UM73); experiment: SelectScreen kinase selectivity assay; settings: ten-dose 0.25–128 μM
Procedure: as §1

AXL = AXL (Homo sapiens, UniProt P30530); experiment: SelectScreen kinase selectivity assay; settings: ten-dose 0.25–128 μM
Procedure: as §1

BLK = BLK (Homo sapiens, UniProt P51451); experiment: SelectScreen kinase selectivity assay; settings: ten-dose 0.25–128 μM
Procedure: as §1

BMX = BMX (Homo sapiens, UniProt P51813); experiment: SelectScreen kinase selectivity assay; settings: ten-dose 0.25–128 μM
BMX, sequence (P51813 whole entry): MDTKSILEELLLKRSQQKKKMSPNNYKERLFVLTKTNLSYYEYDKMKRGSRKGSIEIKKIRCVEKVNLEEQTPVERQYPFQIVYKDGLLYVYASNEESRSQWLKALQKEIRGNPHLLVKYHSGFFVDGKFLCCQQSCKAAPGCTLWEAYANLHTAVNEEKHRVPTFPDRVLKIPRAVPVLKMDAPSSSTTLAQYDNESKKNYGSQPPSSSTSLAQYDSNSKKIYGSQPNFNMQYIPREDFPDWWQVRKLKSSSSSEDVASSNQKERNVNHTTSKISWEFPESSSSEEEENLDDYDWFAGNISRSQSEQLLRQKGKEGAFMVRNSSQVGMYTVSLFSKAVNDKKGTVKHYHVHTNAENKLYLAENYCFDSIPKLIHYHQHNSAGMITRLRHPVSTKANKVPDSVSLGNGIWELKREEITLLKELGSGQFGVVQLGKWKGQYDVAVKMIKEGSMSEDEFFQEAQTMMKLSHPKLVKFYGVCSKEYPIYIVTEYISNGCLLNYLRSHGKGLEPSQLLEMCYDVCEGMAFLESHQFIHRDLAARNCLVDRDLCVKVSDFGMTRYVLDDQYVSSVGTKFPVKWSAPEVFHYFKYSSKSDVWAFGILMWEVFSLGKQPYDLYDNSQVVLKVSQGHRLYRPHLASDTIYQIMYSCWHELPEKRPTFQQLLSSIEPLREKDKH
Procedure: as §1

BTK = BTK (Homo sapiens, UniProt Q06187); experiment: SelectScreen kinase selectivity assay; settings: ten-dose 0.25–128 μM
BTK, sequence (Q06187 whole entry): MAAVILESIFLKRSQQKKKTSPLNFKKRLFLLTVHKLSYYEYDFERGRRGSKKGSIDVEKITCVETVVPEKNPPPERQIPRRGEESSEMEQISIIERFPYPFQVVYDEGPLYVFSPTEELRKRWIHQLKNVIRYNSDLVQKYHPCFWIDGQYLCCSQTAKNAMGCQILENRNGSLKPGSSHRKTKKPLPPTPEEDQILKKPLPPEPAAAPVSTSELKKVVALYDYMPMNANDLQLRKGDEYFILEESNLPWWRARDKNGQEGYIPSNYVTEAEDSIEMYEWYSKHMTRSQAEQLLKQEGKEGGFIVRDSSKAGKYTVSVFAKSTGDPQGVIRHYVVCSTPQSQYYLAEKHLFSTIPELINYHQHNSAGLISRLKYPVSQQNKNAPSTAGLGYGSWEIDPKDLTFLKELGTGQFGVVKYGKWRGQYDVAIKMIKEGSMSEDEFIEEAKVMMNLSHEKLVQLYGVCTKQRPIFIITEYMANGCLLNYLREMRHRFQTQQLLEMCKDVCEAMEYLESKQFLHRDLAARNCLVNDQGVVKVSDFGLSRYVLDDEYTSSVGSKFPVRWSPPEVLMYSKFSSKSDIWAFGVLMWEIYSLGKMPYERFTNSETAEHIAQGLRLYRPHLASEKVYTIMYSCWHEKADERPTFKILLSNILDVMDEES
Procedure: as §1

CDK1 = CDK1 (Homo sapiens, UniProt P06493); experiment: SelectScreen kinase selectivity assay; settings: ten-dose 0.25–128 μM
Procedure: as §1

CSF1R = CSF1R (Homo sapiens, UniProt P07333); experiment: SelectScreen kinase selectivity assay; settings: ten-dose 0.25–128 μM
Procedure: as §1

DDR2 = DDR2 (Homo sapiens, UniProt Q16832); experiment: SelectScreen kinase selectivity assay; settings: ten-dose 0.25–128 μM
Procedure: as §1

EPHA1 = EPHA1 (Homo sapiens, UniProt P21709); experiment: SelectScreen kinase selectivity assay; settings: ten-dose 0.25–128 μM
Procedure: as §1

EPHA2 = EPHA2 (Homo sapiens, UniProt P29317); experiment: SelectScreen kinase selectivity assay; settings: ten-dose 0.25–128 μM
Procedure: as §1

EPHA5 = EPHA5 (Homo sapiens, UniProt P54756); experiment: SelectScreen kinase selectivity assay; settings: ten-dose 0.25–128 μM
Procedure: as §1

EPHB1 = EPHB1 (Homo sapiens, UniProt P54762); experiment: SelectScreen kinase selectivity assay; settings: ten-dose 0.25–128 μM
Procedure: as §1

EPHB3 = EPHB3 (Homo sapiens, UniProt P54753); experiment: SelectScreen kinase selectivity assay; settings: ten-dose 0.25–128 μM
Procedure: as §1

EPHB4 = EPHB4 (Homo sapiens, UniProt P54760); experiment: SelectScreen kinase selectivity assay; settings: ten-dose 0.25–128 μM
EPHB4, sequence (P54760 16-987): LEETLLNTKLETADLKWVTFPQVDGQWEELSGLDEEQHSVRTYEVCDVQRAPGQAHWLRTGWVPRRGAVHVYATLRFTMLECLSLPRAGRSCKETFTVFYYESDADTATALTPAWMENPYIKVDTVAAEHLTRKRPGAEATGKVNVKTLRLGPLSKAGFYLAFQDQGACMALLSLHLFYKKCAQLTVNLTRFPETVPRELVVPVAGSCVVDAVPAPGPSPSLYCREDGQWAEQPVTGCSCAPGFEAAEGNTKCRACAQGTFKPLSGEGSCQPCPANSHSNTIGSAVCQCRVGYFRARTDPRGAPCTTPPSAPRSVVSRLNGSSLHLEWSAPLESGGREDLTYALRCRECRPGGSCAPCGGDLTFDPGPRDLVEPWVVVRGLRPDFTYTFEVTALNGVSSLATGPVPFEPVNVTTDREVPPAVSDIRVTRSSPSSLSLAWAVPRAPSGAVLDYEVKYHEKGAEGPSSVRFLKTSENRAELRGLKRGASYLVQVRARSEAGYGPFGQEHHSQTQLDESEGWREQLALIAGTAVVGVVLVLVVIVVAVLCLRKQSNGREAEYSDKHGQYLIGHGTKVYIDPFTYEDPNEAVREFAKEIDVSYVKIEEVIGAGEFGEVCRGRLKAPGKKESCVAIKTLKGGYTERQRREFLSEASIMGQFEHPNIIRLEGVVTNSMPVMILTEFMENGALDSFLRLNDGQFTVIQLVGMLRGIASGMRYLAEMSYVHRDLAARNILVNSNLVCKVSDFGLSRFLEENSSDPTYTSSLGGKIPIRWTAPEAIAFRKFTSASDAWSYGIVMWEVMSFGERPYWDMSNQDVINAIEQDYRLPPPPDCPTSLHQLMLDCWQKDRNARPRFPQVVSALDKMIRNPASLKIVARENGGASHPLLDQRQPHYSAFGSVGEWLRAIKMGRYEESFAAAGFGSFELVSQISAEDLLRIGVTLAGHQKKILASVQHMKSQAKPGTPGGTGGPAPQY
Procedure: as §1

ERBB2 = ERBB2 (Homo sapiens, UniProt P04626); experiment: SelectScreen kinase selectivity assay; settings: ten-dose 0.25–128 μM
Procedure: as §1

FES = FES (Homo sapiens, UniProt P07332); experiment: SelectScreen kinase selectivity assay; settings: ten-dose 0.25–128 μM
Procedure: as §1

FGFR1 = FGFR1 (Homo sapiens, UniProt P11362); experiment: SelectScreen kinase selectivity assay; settings: ten-dose 0.25–128 μM
Procedure: as §1

FGFR2 = FGFR2 (Homo sapiens, UniProt P21802); experiment: SelectScreen kinase selectivity assay; settings: ten-dose 0.25–128 μM
Procedure: as §1

FGFR4 = FGFR4 (Homo sapiens, UniProt P22455); experiment: SelectScreen kinase selectivity assay; settings: ten-dose 0.25–128 μM
Procedure: as §1

FGR = FGR (Homo sapiens, UniProt P09769); experiment: SelectScreen kinase selectivity assay; settings: ten-dose 0.25–128 μM
FGR, sequence (P09769 whole entry): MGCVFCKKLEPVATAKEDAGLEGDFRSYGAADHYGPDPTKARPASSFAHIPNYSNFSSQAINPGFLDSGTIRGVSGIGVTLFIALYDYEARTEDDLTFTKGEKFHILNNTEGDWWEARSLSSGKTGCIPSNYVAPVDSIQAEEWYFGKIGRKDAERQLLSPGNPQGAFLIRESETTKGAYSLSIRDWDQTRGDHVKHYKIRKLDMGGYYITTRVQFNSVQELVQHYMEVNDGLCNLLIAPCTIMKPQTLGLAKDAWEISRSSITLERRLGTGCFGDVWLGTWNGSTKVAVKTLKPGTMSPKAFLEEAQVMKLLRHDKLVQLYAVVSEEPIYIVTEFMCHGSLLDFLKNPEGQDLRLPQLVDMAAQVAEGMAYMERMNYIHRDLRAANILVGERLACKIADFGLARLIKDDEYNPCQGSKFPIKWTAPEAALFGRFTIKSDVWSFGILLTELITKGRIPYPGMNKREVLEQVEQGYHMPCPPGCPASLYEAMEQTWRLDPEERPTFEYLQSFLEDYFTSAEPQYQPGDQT
Procedure: as §1

FRK = FRK (Homo sapiens, UniProt P42685); experiment: SelectScreen kinase selectivity assay; settings: ten-dose 0.25–128 μM
Procedure: as §1

IGF1R = IGF1R (Homo sapiens, UniProt P08069); experiment: SelectScreen kinase selectivity assay; settings: ten-dose 0.25–128 μM
Procedure: as §1

INSRR = INSRR (Homo sapiens, UniProt P14616); experiment: SelectScreen kinase selectivity assay; settings: ten-dose 0.25–128 μM
INSRR, sequence (P14616 27-1297): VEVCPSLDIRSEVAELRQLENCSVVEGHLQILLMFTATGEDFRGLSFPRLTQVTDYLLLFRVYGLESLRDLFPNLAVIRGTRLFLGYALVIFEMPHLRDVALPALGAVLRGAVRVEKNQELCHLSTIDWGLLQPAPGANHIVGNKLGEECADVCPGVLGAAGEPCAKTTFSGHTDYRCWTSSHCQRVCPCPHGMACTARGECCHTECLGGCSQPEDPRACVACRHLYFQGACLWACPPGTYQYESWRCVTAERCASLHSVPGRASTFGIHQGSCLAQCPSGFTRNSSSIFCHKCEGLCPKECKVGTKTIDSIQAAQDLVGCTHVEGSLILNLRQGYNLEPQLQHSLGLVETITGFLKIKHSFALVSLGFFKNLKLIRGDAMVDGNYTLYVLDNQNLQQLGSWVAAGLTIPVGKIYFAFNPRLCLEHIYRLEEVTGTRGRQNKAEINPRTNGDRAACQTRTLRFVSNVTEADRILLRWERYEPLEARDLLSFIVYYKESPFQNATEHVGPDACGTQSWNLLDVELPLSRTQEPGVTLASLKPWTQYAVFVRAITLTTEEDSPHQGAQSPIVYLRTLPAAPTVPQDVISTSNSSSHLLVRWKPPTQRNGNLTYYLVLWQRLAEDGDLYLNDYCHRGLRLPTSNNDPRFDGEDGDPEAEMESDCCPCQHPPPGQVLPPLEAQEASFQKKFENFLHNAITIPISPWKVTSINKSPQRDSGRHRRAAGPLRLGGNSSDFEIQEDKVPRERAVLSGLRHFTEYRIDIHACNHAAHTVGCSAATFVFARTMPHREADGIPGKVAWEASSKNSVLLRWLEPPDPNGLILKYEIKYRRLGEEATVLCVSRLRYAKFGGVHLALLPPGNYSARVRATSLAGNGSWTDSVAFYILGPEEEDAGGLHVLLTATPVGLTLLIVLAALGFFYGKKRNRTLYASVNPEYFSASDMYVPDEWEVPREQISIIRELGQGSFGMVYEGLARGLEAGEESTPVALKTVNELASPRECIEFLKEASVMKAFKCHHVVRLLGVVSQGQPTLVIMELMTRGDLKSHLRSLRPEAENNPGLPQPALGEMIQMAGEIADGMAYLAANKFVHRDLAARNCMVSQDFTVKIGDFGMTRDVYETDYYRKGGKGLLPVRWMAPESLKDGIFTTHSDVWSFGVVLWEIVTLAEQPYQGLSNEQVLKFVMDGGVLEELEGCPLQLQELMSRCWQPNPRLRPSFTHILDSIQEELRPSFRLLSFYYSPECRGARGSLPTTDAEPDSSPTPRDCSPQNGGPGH
Procedure: as §1

ITK = ITK (Homo sapiens, UniProt Q08881); experiment: SelectScreen kinase selectivity assay; settings: ten-dose 0.25–128 μM
Procedure: as §1

LTK = LTK (Homo sapiens, UniProt P29376); experiment: SelectScreen kinase selectivity assay; settings: ten-dose 0.25–128 μM
Procedure: as §1

LYN = LYN (Homo sapiens, UniProt P07948); experiment: SelectScreen kinase selectivity assay; settings: ten-dose 0.25–128 μM
Procedure: as §1

MERTK = MERTK (Homo sapiens, UniProt Q12866); experiment: SelectScreen kinase selectivity assay; settings: ten-dose 0.25–128 μM
Procedure: as §1

MET = MET (Homo sapiens, UniProt P08581); experiment: SelectScreen kinase selectivity assay; settings: ten-dose 0.25–128 μM
Procedure: as §1

NTRK1 = NTRK1 (Homo sapiens, UniProt P04629); experiment: SelectScreen kinase selectivity assay; settings: ten-dose 0.25–128 μM
Procedure: as §1

NTRK2 = NTRK2 (Homo sapiens, UniProt Q16620); experiment: SelectScreen kinase selectivity assay; settings: ten-dose 0.25–128 μM
Procedure: as §1

NTRK3 = NTRK3 (Homo sapiens, UniProt Q16288); experiment: SelectScreen kinase selectivity assay; settings: ten-dose 0.25–128 μM
Procedure: as §1

PDGFRB = PDGFRB (Homo sapiens, UniProt P09619); experiment: SelectScreen kinase selectivity assay; settings: ten-dose 0.25–128 μM
Procedure: as §1

PIM1 = PIM1 (Homo sapiens, UniProt P11309); experiment: SelectScreen kinase selectivity assay; settings: ten-dose 0.25–128 μM
PIM1, sequence (P11309 whole entry): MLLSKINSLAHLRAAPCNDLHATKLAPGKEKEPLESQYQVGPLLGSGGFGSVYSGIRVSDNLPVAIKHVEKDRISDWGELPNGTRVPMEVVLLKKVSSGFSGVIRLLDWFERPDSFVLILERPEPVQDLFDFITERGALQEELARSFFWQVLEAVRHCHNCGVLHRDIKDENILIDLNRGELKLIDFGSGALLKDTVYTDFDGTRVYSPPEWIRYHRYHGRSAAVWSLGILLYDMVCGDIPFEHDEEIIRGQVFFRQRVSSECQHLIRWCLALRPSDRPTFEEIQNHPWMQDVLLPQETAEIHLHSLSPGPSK
Procedure: as §1

PLK1 = PLK1 (Homo sapiens, UniProt P53350); experiment: SelectScreen kinase selectivity assay; settings: ten-dose 0.25–128 μM
Procedure: as §1

RAF1 = RAF1 (Homo sapiens, UniProt P04049, Y340D/Y341D); experiment: SelectScreen kinase selectivity assay; settings: ten-dose 0.25–128 μM
Procedure: as §1

ROS1 = ROS1 (Homo sapiens, UniProt P08922); experiment: SelectScreen kinase selectivity assay; settings: ten-dose 0.25–128 μM
Procedure: as §1

YES1 = YES1 (Homo sapiens, UniProt P07947); experiment: SelectScreen kinase selectivity assay; settings: ten-dose 0.25–128 μM
Procedure: as §1

ZAK = ZAK (Homo sapiens, UniProt Q9NYL2); experiment: SelectScreen kinase selectivity assay; settings: ten-dose 0.25–128 μM
Procedure: as §1

ZAP70 = ZAP70 (Homo sapiens, UniProt P43403); experiment: SelectScreen kinase selectivity assay; settings: ten-dose 0.25–128 μM
ZAP70, sequence (P43403 whole entry): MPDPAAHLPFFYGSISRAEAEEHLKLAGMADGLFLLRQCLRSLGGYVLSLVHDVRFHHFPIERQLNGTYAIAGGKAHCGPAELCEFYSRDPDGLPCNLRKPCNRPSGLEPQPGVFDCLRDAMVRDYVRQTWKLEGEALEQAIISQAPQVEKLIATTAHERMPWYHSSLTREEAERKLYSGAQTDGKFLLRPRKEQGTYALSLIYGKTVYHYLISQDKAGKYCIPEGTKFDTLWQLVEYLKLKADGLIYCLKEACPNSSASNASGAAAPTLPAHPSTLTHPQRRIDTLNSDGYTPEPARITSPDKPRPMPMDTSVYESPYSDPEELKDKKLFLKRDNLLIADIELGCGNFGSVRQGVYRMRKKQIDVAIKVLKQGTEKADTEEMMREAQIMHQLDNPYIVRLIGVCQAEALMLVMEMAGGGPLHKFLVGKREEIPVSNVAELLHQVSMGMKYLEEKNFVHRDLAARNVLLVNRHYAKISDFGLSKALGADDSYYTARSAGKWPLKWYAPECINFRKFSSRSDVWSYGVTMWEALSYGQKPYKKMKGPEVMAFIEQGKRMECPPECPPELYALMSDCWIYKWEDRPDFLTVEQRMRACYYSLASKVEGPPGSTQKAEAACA
Procedure: as §1

Measured: IC50

CCc1nc(C(N)=O)c(Nc2ccc(N3CCC(Nc4ccccc4)CC3)c(OC)c2)nc1NC1CCOC(C(O)CO)C1 (centres unmarked) [FLIN-4]
> 10 µM: all assays above
